Measurements published in US20170037007A1, “SUBSTITUTED N-(2-(AMINO)-2OXOETHYL)BENZAMIDE INHIBITORS OF AUTOTAXIN AND THEIR PREPARATION AND USE IN THE TREATMENT OF LPA-DEPENDENT OR LPA-MEDIATED DISEASES” (X-Rx, Inc., priority 2014, published 2017).

biological target: T1, Autotaxin (Homo sapiens, UniProt Q13822); experiment: Autotaxin LPC Cascade Assay; type: biochemical; details: 5 nM autotaxin, 100 μM LPC, choline oxidase/HRP/Ampliflu Red fluorescence readout; read-out: IC50 ATX activity values, IC50
T1 construct: purchased X-Chem
Protocol: Autotaxin LPC Cascade Assay
HA130 and Test Compounds:
Highest final concentration is […] for HA130 (Echelon, B-0701) and 30 μM for test compounds. Prepare a 1 mM stock of HA130 and a 3 mM stock of each compound in 100% DMSO. Perform a 1:3 serial dilution in DMSO (transfer 5 μl of compound to 10 μl of DMSO). Add 240 μl of buffer to generate a top working concentration of 40 µM (HA130) and 120 µM (test compound) in 4% DMSO.
Ampliflu Red—Prepare a stock of 5 mM from 100 mM in 100% DMSO. Further dilute to a working concentration of 400 μM in buffer (8% DMSO).
Together with compound this yields a 2% DMSO final concentration.
Choline Oxidase/HRP—0.8 U/ml CO and 8 U/ml HRP.
Add 5 μl of ATX and 5 μl of compound in a 384 well plate (Corning 3676). Incubate for 10 mins at RT. Add 5 μl of LPC and incubate for 1 hr on the plate shaker. Prepare the CO/HRP and AR prior to use. Add 2.5 μl of CO/HRP and follow with 2.5 μl AR. Note order of addition, CO/HRP mix before AR. Read fluorescence intensity (λex/λem: 530/590 nm) kinetically for 30 min at RT on the Tecan M1000.

`CC(C)[C@@H](NC(=O)c1cc(OC(F)(F)F)ccc1F)C(=O)N1CCC(C)(Nc2ccc(C(=O)O)cc2)CC1` [Example 11, (R)-4-((1-(2-(2-Fluoro-5-(trifluoromethoxy)benzamido)-3-methylbutanoyl)-4-methylpiperidin-4-yl)amino)benzoic acic] and `CC(C)[C@@H](NC(=O)c1cc(C(F)(F)F)ccc1F)C(=O)N1CCC(C)(Nc2ccc(C(=O)O)cc2)CC1` [Example 21, (R)-4-(1-(2-(2-Fluoro-5-(trifluoromethyl)benzamido)-3-methylbutanoyl)-4-methylpiperidin-4-ylamino)benzoic acid] fall in the same range of IC50: 100 to 500 nM for the first, 100 to 500 nM for the second.

First: CC(C)[C@@H](NC(=O)c1cc(C2CC2)ccc1F)C(=O)N1CCC(C)(Nc2ccc(S(C)(=O)=O)cc2)CC1 [Example 33, (R)-5-Cyclopropyl-2-fluoro-N-(3-methyl-1-(4-methyl-4-(4-(methylsulfonyl)phenylamino)piperidin-1-yl)-1-oxobutan-2-yl)benzamide]
Second: COc1ccc(F)c(C(=O)N[C@@H](C(=O)N2CCC(C)(Nc3ccc(S(C)(=O)=O)cc3)CC2)C(C)C)c1 [Example 5, (R)-2-Fluoro-5-methoxy-N-(3-methyl-1-(4-methyl-4-(4-(methylsulfonyl)phenylamino)piperidin-1-yl)-1-oxobutan-2-yl)benzamide]
The IC50 of the first is lower: 100 to 500 nM for the first, 500 to 5000 nM for the second.

First: CCc1ccc(F)c(C(=O)N[C@@H](C(=O)N2CCC(C)(Nc3ccc(CS(C)(=O)=O)cc3)CC2)C(C)C)c1 [Example 26, (R)-5-Ethyl-2-fluoro-N-(3-methyl-1-(4-methyl-4-(4-(methylsulfonylmethyl)phenylamino)piperidin-1-yl)-1-oxobutan-2-yl)benzamide]
Second: CCc1ccc(F)c(C(=O)N[C@@H](C(=O)N2CCC(C#N)(Nc3ccc(S(C)(=O)=O)cc3)CC2)C(C)C)c1 [Example 18, (R)—N-(1-(4-Cyano-4-(4-(methylsulfonyl)phenylamino)piperidin-1-yl)-3-methyl-1-oxobutan-2-yl)-5-ethyl-2-fluorobenzamide]
The IC50 of the first is lower: 10 to 100 nM for the first, 500 to 5000 nM for the second.

`COc1ccc(CNC2(C)CCN(C(=O)[C@H](NC(=O)c3cccc(OC(F)(F)F)c3)C(C)C)CC2)cc1` [Example 43, (R)—N-(1-(4-((4-Methoxybenzyl)amino)-4-methylpiperidin-1-yl)-3-methyl-1-oxobutan-2-yl)-3-(trifluoromethoxy)benzamide] and `CC(C)[C@H](NC(=O)c1cccc(OC(F)(F)F)c1)C(=O)N1CCC(C)(NCc2ccc(S(C)(=O)=O)cc2)CC1` [Example 42, (S)—N-(3-Methyl-1-(4-methyl-4-((4-(methylsulfonyl)benzyl)amino)piperidin-1-yl)-1-oxobutan-2-yl)-3-(trifluoromethoxy)benzamide] fall in the same range of IC50: 500 to 5000 nM for the first, 500 to 5000 nM for the second.

Compared with `Cc1cccc(C(=O)N[C@@H](C(=O)N2CCC(C)(Nc3ccc(C#N)cc3)CC2)C(C)C)c1F` [Example 1, (R)—N-(1-(4-(4-Cyanophenylamino)-4-methylpiperidin-1-yl)-3-methyl-1-oxobutan-2-yl)-2-fluoro-3-methylbenzamide], `CC(C)[C@@H](NC(=O)c1cc(OC(F)(F)F)ccc1F)C(=O)N1CCC(C)(Nc2ccc(S(C)(=O)=O)cc2)CC1` [Example 6, (R)-2-Fluoro-N-(3-methyl-1-(4-methyl-4-(4-(methylsulfonyl)phenylamino)piperidin-1-yl)-1-oxobutan-2-yl)-5-(trifluoromethoxy)benzamide] is lower in IC50: 500 to 5000 nM for the first, 10 to 100 nM for the second.

First: CC(C)[C@@H](NC(=O)c1cccc(OC(F)(F)F)c1)C(=O)N1CCC(C)(Nc2ccccc2)CC1 [Example 7, (R)—N-(3-Methyl-1-(4-methyl-4-(phenylamino)piperidin-1-yl)-1-oxobutan-2-yl)-3-(trifluoromethoxy)benzamide]
Second: CC(C)[C@@H](NC(=O)c1cc(OC(F)(F)F)ccc1F)C(=O)N1CCC(C)(Nc2ccccc2)CC1 [Example 10, (R)-2-Fluoro-N-(3-methyl-1-(4-methyl-4-(phenylamino)piperidin-1-yl)-1-oxobutan-2-yl)-5-(trifluoromethoxy)benzamide]
The IC50 of the first is higher: 500 to 5000 nM for the first, 100 to 500 nM for the second.

`CC1CCc2cc(F)c(C(=O)N[C@@H](C(=O)N3CCC(C)(Nc4ccc(S(C)(=O)=O)cc4)CC3)C(C)C)cc21` (stereo partly drawn) [Example 25, 6-Fluoro-3-methyl-N—((R)-3-methyl-1-(4-methyl-4-(4-(methylsulfonyl)phenylamino)piperidin-1-yl)-1-oxobutan-2-yl)-2,3-dihydro-1H-indene-5-carboxamide] and `CC1(Nc2ccc(S(C)(=O)=O)cc2)CCN(C(=O)[C@H](NC(=O)c2cc(OC(F)(F)F)ccc2F)C2CC2)CC1` [Example 13, (R)—N-(1-Cyclopropyl-2-(4-methyl-4-((4-(methylsulfonyl)phenyl)amino)piperidin-1-yl)-2-oxoethyl)-2-fluoro-5-(trifluoromethoxy)benzamide] fall in the same range of IC50: 100 to 500 nM for the first, 100 to 500 nM for the second.

First: COc1ccc(CNC2(C)CCN(C(=O)[C@H](NC(=O)c3cc(OC(F)(F)F)ccc3F)C(C)C)CC2)cc1 [Example 40, (R)-2-Fluoro-N-(1-(4-((4-methoxybenzyl)amino)-4-methylpiperidin-1-yl)-3-methyl-1-oxobutan-2-yl)-5-(trifluoromethoxy)benzamide]
Second: COCC1(Nc2ccccc2)CCN(C(=O)[C@H](NC(=O)c2cccc(C)c2)C(C)C)CC1 [Example 17, (R)—N-(1-(4-(Methoxymethyl)-4-(phenylamino)piperidin-1-yl)-3-methyl-1-oxobutan-2-yl)-3-methylbenzamide]
The IC50 of the first is lower: 100 to 500 nM for the first, no less than 10000 nM for the second. The first is the more potent here.
